From PubChem BioAssay (NCI) come the findings set out here.

Test in all cases: NCI anticancer screen, dose series, 48 h
Test [1] concerns CCRF-CEM leukemia.
Test [2] relates to SK-MEL-5 melanoma.
Test [3] relates to HCC-2998 colon.
For test [4], the system named is OVCAR-8 ovarian.
Test [5] concerns TK-10 renal.
The test system of test [6] is NCI-H522 lung.
In test [7] the test system is NCI-H226 lung.
The subject of test [8] is SW-620 colon.
For test [9], the system named is UACC-62 melanoma.
Test [10] relates to SNB-75 CNS.

The structures appear in SMILES notation. Several values for one entry are separate records, joined by “and”; a condition that tells them apart may be missing. Identical values can stand only once.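 These data come from cells grown in 96-well plates and exposed to compound for 48 hours at five concentrations. GI50: concentration for 50% inhibition of growth. Definition used: TGI = concentration required for complete inhibition of growth.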

On to `COc1cccc(C2=NN(C(C)=O)C(c3cc(OC)c(OC)c(OC)c3)C2)c1` (stereo not given), for which the GI50 in test [1] is 0.921 µM; in test [2], 0.829 µM; in test [3], 2.26 µM; in test [4], 5.1 µM; in test [5] it was 25.8 µM; in [6] it was 3.97 µM. Further, the GI50 is greater than 100 µM in test [7], 0.668 µM in test [8], 3.85 µM in test [9] and 1.73 µM in [10]. Also, the TGI is 5.61 µM in [1]; 10.2 µM in test [2]; 16 µM in [3]; greater than 100 µM in test [4]; greater than 100 µM in test [5]; greater than 66.3 µM in test [6]. The TGI in [7], in test [8], in test [9] and in test [10] was greater than 100 µM throughout.

For the compound `CCN(CC)CCC(CNc1c2ccc([N+](=O)[O-])cc2nc2cc(OC)c(OC)cc12)c1ccccc1` (stereo not given), the GI50 in [1] is 1.19 µM and 1.7 µM; in [2] it was 0.445 µM; in test [3], 0.138 µM and 0.114 µM; in [4] it was 0.45 µM and 0.166 µM; in test [5] it was 1.04 µM and 0.485 µM; in [6] it was 0.345 µM and 0.166 µM. Moreover, the GI50 in [7] was 0.26 µM and 0.329 µM; in test [8], 0.145 µM and 0.0727 µM; in test [9] it was 0.542 µM and 0.696 µM; in test [10] it was 0.33 µM and 0.673 µM. Further, the TGI in test [1] is 7.29 µM and 10.1 µM; in test [2], 1.47 µM; in [3], 0.348 µM and 0.284 µM; in test [4] it was 1.87 µM and 0.978 µM; in test [5], 2.27 µM and 1.62 µM; in test [6], 1.46 µM and 0.435 µM. Also, the TGI in test [7] is 0.869 µM and 1.47 µM; in test [8], 1.1 µM and 0.763 µM; in test [9], 1.91 µM and 2.01 µM; in test [10] it was 1.62 µM and 2.15 µM.

As for `CNC(=O)c1cc(Oc2ccc3nc(NC(=O)c4cc(C(F)(F)F)cc(C(F)(F)F)c4)sc3c2)ccn1`, the GI50 in test [1] is 3.47 µM; in test [2], 1.68 µM; in [3], 6.63 µM; in [4], 3.06 µM; in [5] it was 3.37 µM; in [6], 2.82 µM. For the same compound, the GI50 in test [7] was 4.15 µM; in test [8] it was 7.56 µM; in [9] it was 2.71 µM; in [10], 3.13 µM. Further, the TGI was greater than 100 µM in test [1]; 3.63 µM in test [2]; 24.7 µM in test [3]; 13 µM in test [4]; 13.3 µM in test [5]; 8.77 µM in test [6]. In addition, the TGI amounted to 17.4 µM in test [7], 63.8 µM in [8], 12.1 µM in test [9] and 14.8 µM in test [10].

`S=c1cn[nH]c2ccc(Br)cc12`: the TGI in test [1] is greater than 100 µM; in [2], greater than 100 µM; in test [3], greater than 100 µM; in [4] it was greater than 100 µM; in test [5], greater than 100 µM; in [6], 91.6 µM. The TGI in [7], in test [8], in test [9] and in test [10] was greater than 100 µM throughout.

As for `Nc1nn(C(=O)Nc2ccc(Cc3ccccc3)cc2)c2ccc(Cl)cc12`, the GI50 in test [1] was 3.08 µM; in test [2], 0.33 µM; in test [3], 0.211 µM; in test [4], 14.8 µM; in test [5], 17.7 µM; in test [6], 7.96 µM. Besides, the GI50 in [7] was 13.5 µM; in test [8], 0.724 µM; in test [9] it was 0.0397 µM; in test [10], 15 µM. Besides, the TGI in test [1] was greater than 58.7 µM; in test [2], 25.8 µM; in test [3], 1.48 µM; in test [4] it was greater than 100 µM; in test [5], 50.3 µM; in test [6], greater than 100 µM. The TGI in test [7] was greater than 81.7 µM; in [8] it was 54.3 µM; in test [9], greater than 100 µM; in test [10], 35.2 µM.

Take `O=[N+]([O-])c1ccccc1S(=O)(=O)c1ccccc1[N+](=O)[O-]`: the TGI is greater than 100 µM in test [1]; greater than 56.2 µM in [2]; greater than 100 µM in test [3]; greater than 56.2 µM in test [4]; greater than 56.2 µM in [5]; greater than 100 µM in [6]. For the same compound, the TGI in test [7] was greater than 100 µM; in [8], greater than 56.2 µM; in test [9], greater than 100 µM; in [10], 43.1 µM.

Regarding `C[C@@]12CCC[C@@](C)(C(=O)O)C1CC[C@]13C=C(CO)[C@](O)(CCC12)C3` (stereo not given in full), the GI50 in test [1] is 65.9 µM; in test [2], greater than 100 µM; in test [3] it was greater than 100 µM; in [4] it was greater than 100 µM; in [5], greater than 100 µM; in test [6], greater than 100 µM. Moreover, the GI50 in test [7], in [8], in test [9] and in test [10] was greater than 100 µM throughout. For the same compound, the TGI in test [1], in [2], in [3], in test [4], in test [5] and in [6] was greater than 100 µM in each case. The TGI in test [7], in test [8], in test [9] and in test [10] was greater than 100 µM throughout.

On to `Nc1ccccc1S(=O)c1ccccc1` (stereo not given), for which the TGI in [1], in test [2], in test [3], in test [4], in test [5] and in [6] was greater than 100 µM throughout. In addition, the TGI in [7], in test [8], in test [9] and in [10] was greater than 100 µM in each case.

Consider `O=C(/C=C/c1ccccc1Cl)c1ccc(O)cc1`, for which the GI50 in test [1] was 6.18 µM; in test [2], 9.57 µM; in test [3], 12.7 µM; in test [4], 8.3 µM; in test [5], 18.1 µM; in test [6], 9.33 µM. Also, the GI50 in test [7] is 15.2 µM; in test [8], 2.89 µM; in test [9], 7.88 µM; in test [10], 10.6 µM. Moreover, the TGI in test [1] came out at 35 µM; in test [2], 23.4 µM; in [3], 26.7 µM; in [4], 26.3 µM; in [5], 32.4 µM; in test [6], 23.9 µM. For the same compound, the TGI was 42.8 µM in test [7], 7.88 µM in [8], 21.8 µM in test [9] and 24.5 µM in test [10].
